Laboratory results taken from PMC10056443, “Derivatives of Amaryllidaceae Alkaloid Ambelline as Selective Inhibitors of Hepatic Stage of Plasmodium berghei Infection In Vitro” (Pharmaceutics, 2023).
Like-named read-outs stand apart in the source and are kept apart here.

Tests used:
[1] = tested on: hepatic stage of P. berghei; assay: In vitro activity against P. berghei hepatic stages (luciferase-expressing sporozoites in Huh-7 cells, bioluminescence); type: cell-based, Plasmodium berghei; set-up: INFECTION (IC50 determination): unit not given here; conditions: for activity at 1 µM / activity at 10 µM / IC50: Plasmodium berghei; for activity at 1 µM / activity at 10 µM: Huh-7, 48 h, read-out: INFECTION Ø screening; for activity at 1 µM / activity at 10 µM / INFECTION (IC50 determination): DMSO = 100
Experimental: Activity against the hepatic stage of P. berghei infection was assessed using the human hepatoma cell line Huh-7 (deposited at the Japanese Collection of Research Bioresources under JCRB0403). The protocol was previously comprehensively described by Prudêncio et al. and by Ploemen et al.. […] Cells were seeded in 96-well plates at a density of 1 × 10^4 cells per well in 100 µL of culture medium and incubated at 37 °C with 5% CO2 for approximately 18 h. […] The culture medium was substituted by infection medium with diluted compounds 1 hour in advance of infection. Luciferase-expressing P. berghei sporozoites (PbA-LuciGFPcon spz) were freshly obtained through the dissection of salivary glands from infected female Anopheles stephensi mosquitoes. Sporozoites were added to the cells at 1:1 ratio, i.e., 1 × 10^4 sporozoites were added per well, and then subjected to centrifugation at 1800× g for 5 min. The plate was then incubated for 46 h at 37 °C with 5% CO2, at which time Huh-7 cell confluency was indirectly assessed by the alamarBlue assay (Invitrogen, Waltham, MA, USA), as reported in the manufacturer’s protocol. Parasite load was assessed 48 h post-infection by a bioluminescence assay, as reported by the manufacturer (Biotium, Fremont, CA, USA). GraphPad Prism 8 (GraphPad Software, Inc., La Jolla, CA, USA) was used to obtain IC50 values using nonlinear regression analysis to fit the dose-response curves normalized results.

Huh-7 cell line = assay: Huh-7 cell confluency by alamarBlue assay during hepatic-stage test; type: cell-based
Experimental: Activity against the hepatic stage of P. berghei infection was assessed using the human hepatoma cell line Huh-7 (deposited at the Japanese Collection of Research Bioresources under JCRB0403). The protocol was previously comprehensively described by Prudêncio et al. and by Ploemen et al.. Briefly, cell culture medium consisted of 1640 RPMI medium supplemented with 10% v/v fetal calf serum, 1% v/v L-glutamine, 1% v/v nonessential amino acids, 1% v/v penicillin/streptomycin, and 10 mM HEPES, pH 7. Cells were seeded in 96-well plates at a density of 1 × 10^4 cells per well in 100 µL of culture medium and incubated at 37 °C with 5% CO2 for approximately 18 h. […] The culture medium was substituted by infection medium with diluted compounds 1 hour in advance of infection. Luciferase-expressing P. berghei sporozoites (PbA-LuciGFPcon spz) were freshly obtained through the dissection of salivary glands from infected female Anopheles stephensi mosquitoes. Sporozoites were added to the cells at 1:1 ratio, i.e., 1 × 10^4 sporozoites were added per well, and then subjected to centrifugation at 1800× g for 5 min. The plate was then incubated for 46 h at 37 °C with 5% CO2, at which time Huh-7 cell confluency was indirectly assessed by the alamarBlue assay (Invitrogen, Waltham, MA, USA), as reported in the manufacturer’s protocol. Parasite load was assessed 48 h post-infection by a bioluminescence assay, as reported by the manufacturer (Biotium, Fremont, CA, USA). GraphPad Prism 8 (GraphPad Software, Inc., La Jolla, CA, USA) was used to obtain IC50 values using nonlinear regression analysis to fit the dose-response curves normalized results.

[2] = Cytotoxicity assessment in vitro (MTT assay); type: cell-based; conditions: human
Experimental: (§1) HepG2 cells of human hepatocellular carcinoma (ATCC HB-8065; passage 20–25), purchased from Health Protection Agency Culture Collections (ECACC, Salisbury, UK), were cultured in Minimum Essential Medium Eagle supplemented with 10% v/v fetal bovine serum and 1% v/v L-glutamine solution (Sigma-Aldrich, St. Louis, MO, USA) at 37 °C in a humidified atmosphere containing 5% CO2. For passaging, the cells were treated with trypsin/EDTA (Sigma-Aldrich, St. Louis, MO, USA) at 37 °C and then harvested. For the cytotoxicity evaluation, the cells treated with the test substances were used, while untreated HepG2 cells served as a control group. The cells were seeded in a 96-well plate at a density of 1 × 10^4 cells per well and incubated for 24 h. All tested compounds were dissolved in DMSO to prepare 10 mM stock solutions and diluted to the desired concentration just before the cell treatment. Cytotoxicity of all studied derivatives was screened at 10 μM concentration, and all samples were measured in triplicates. Positive and negative controls were also included. Plates were incubated for 24 h in a humidified atmosphere containing 5% CO2 at 37 °C. After the incubation, a solution of thiazolyl blue tetrazolium bromide (Sigma-Aldrich, St. Louis, MO, USA) in RPMI 1640 medium without phenol red (BioTech, Prague, Czech Republic) was added and incubated for 3 h in a humidified atmosphere containing 5% CO2 at 37 °C. Afterwards, formazan crystals were dissolved in DMSO, and the absorbance of samples was recorded at 570 nm (Synergy Neo2 Multi-Mode Reader NEO2SMALPHAB; BioTek, Winooski, VT, USA).

HepG2 cells = assay: Cytotoxicity assessment in vitro (MTT assay); type: cell-based
Experimental: as §1

[3] = Huh-7, replicate 1, unit (Table 1: µM), read-out: Antiplasmodial activity - IC50 determination, 1. measurement
[4] = Huh-7, replicate 2, unit (Table 1: µM), read-out: Antiplasmodial activity - IC50 determination, 2. measurement
[5] = Huh-7, replicate 3, unit (Table 1: µM), read-out: Antiplasmodial activity - IC50 determination, 3. measurement
[6] = hepatic stage, Huh-7 cells, parasite load 48 h post-infection, read-out: IC50 P. berghei
[7] = at 1 μM, DMSO = 100, in % (unit assumed)
[8] = at 10 μM, DMSO = 100, in % (unit assumed)
[9] = c = 10 µM, 24 h, MTT, read-out: HepG2 % of cell viability compared to non-treated control (100%)

| Compound | activity at 1 µM [1] | activity at 10 µM [1] | IC50 [1, 3] | IC50 [1, 4] | IC50 [1, 5] | IC50 [1, 6] | CELL CONFLUENCY Ø screening (Huh-7 cell line; human, 46 h, 1 µM, pH 7) | CELL CONFLUENCY Ø screening (Huh-7 cell line; human, 46 h, 10 µM, pH 7) | viability at 24 h, 10 µM [2] | 1. screening of cytotoxic potential, HepG2 cell line (HepG2 cells; human, 24 h, 10 µM) | 2. screening of cytotoxic potential, HepG2 cell line (HepG2 cells; human, 24 h, 10 µM) | 3. screening of cytotoxic potential, HepG2 cell line (HepG2 cells; human, 24 h, 10 µM) | Ø screening, HepG2 (sheet Graphs) (HepG2 cells; human, 24 h, 10 µM) | CELL CONFLUENCY Ø screening (Huh-7 cell line; [7]) | CELL CONFLUENCY Ø screening (Huh-7 cell line; [8]) | viability at 24 h, 10 µM [2, 9] | Ø screening, HepG2 (sheet Graphs) (HepG2 cells; c = 10 μM, DMSO = 100, in %) | 1. screening of cytotoxic potential, HepG2 cell line (HepG2 cells; c = 10 μM, replicate 1, in %) | 2. screening of cytotoxic potential, HepG2 cell line (HepG2 cells; c = 10 μM, replicate 2, in %) | 3. screening of cytotoxic potential, HepG2 cell line (HepG2 cells; c = 10 μM, replicate 3, in %) | also measured |
| --- | --- | --- | --- | --- | --- | --- | --- | --- | --- | --- | --- | --- | --- | --- | --- | --- | --- | --- | --- | --- | --- |
| COc1ccccc1C(=O)O[C@@H]1CN2Cc3c(cc4c(c3OC)OCO4)[C@@]13C=C[C@H](OC)C[C@@H]23 [28i, 11-O-(2-Methoxybenzoyl)ambelline] | 60.6% | 1.65% | 1.53 µM | 2.98 µM | 2.7 µM | 2.4 ± 0.77 µM | 140.5 | 135.7 | 86 ± 2% | 85.49 | 83.85 | 87.77 | 85.7 | – | – | – | – | – | – | – | – |
| COc1cccc(C(=O)O[C@@H]2CN3Cc4c(cc5c(c4OC)OCO5)[C@@]24C=C[C@H](OC)C[C@@H]34)c1 [28j, 11-O-(3-Methoxybenzoyl)ambelline] | 10.8% | 0.612% | 0.19 µM | 0.362 µM | 0.232 µM | 0.261 ± 0.09 µM | – | – | – | – | – | – | – | 109.9 | 81.02 | 81 ± 10% | 80.77 | 69.18 | 85.98 | 87.15 | – |
| COc1ccc(C(=O)O[C@@H]2CN3Cc4c(cc5c(c4OC)OCO5)[C@@]24C=C[C@H](OC)C[C@@H]34)cc1 [28k, 11-O-(4-Methoxybenzoyl)ambelline] | 19.9% | 0.872% | 0.446 µM | 0.456 µM | – | 0.451 ± 0.007 µM | – | – | – | – | – | – | – | 107.6 | 76.48 | 88 ± 2% | 87.88 | 88.02 | 89.64 | 85.98 | – |
| COc1ccc(C(=O)O[C@@H]2CN3Cc4c(cc5c(c4OC)OCO5)[C@@]24C=C[C@H](OC)C[C@@H]34)cc1OC [28l, 11-O-(3,4-Dimethoxybenzoyl)ambelline] | 1.65% | 0.301% | 0.16 µM | 0.135 µM | – | 0.147 ± 0.018 µM | 85.82 | 70.05 | 99 ± 9% | 106.14 | 89.55 | 102.39 | 99.36 | – | – | – | – | – | – | – | – |
| COc1cc(C(=O)O[C@@H]2CN3Cc4c(cc5c(c4OC)OCO5)[C@@]24C=C[C@H](OC)C[C@@H]34)cc(OC)c1OC [28n, 11-O-(3,4,5-Trimethoxybenzoyl)ambelline] | 2.38% | 0.82% | 0.047 µM | 0.047 µM | – | 0.047 µM | 69.5 | 68.02 | 52 ± 2% | 52.2 | 49.89 | 54.09 | 52.06 | – | – | – | – | – | – | – | IC50 ([1]; Huh-7, abstract, read-out: IC50 against hepatic stage of Plasmodium infection): 0.047 µM; IC50 ([1]; Huh-7, mean, unit (Table 1: µM), read-out: Antiplasmodial activity - Ø IC50): 0.047 µM; INFECTION (IC50 determination) ([1]; at 0.001 µM): 132.557; INFECTION (IC50 determination) ([1]; at 0.01 µM): 115.469; INFECTION (IC50 determination) ([1]; at 0.04 µM): 56.6784; INFECTION (IC50 determination) ([1]; at 0.07 µM): 26.9184; INFECTION (IC50 determination) ([1]; at 0.1 µM): 17.5104; INFECTION (IC50 determination) ([1]; at 0.5 µM): 2.9184; Huh-7 cell viability (Huh-7 cell line): cell viability was not affected at antiplasmodial-active concentrations; CELL CONFLUENCY (IC50 determination) (Huh-7 cell line; human, 46 h, 0.001 µM, pH 7): 120.661; CELL CONFLUENCY (IC50 determination) (Huh-7 cell line; human, 46 h, 0.01 µM, pH 7): 126.131; CELL CONFLUENCY (IC50 determination) (Huh-7 cell line; human, 46 h, 0.04 µM, pH 7): 117.957; CELL CONFLUENCY (IC50 determination) (Huh-7 cell line; human, 46 h, 0.07 µM, pH 7): 115.634; CELL CONFLUENCY (IC50 determination) (Huh-7 cell line; human, 46 h, 0.1 µM, pH 7): 118.616; CELL CONFLUENCY (IC50 determination) (Huh-7 cell line; human, 46 h, 0.5 µM, pH 7): 106.144 |
| CCOc1cc(OCC)cc(C(=O)O[C@@H]2CN3Cc4c(cc5c(c4OC)OCO5)[C@@]24C=C[C@H](OC)C[C@@H]34)c1 [28o, 11-O-(3,5-Diethoxybenzoyl)ambelline] | 10.9% | 0.0467% | 0.307 µM | 0.326 µM | – | 0.316 ± 0.013 µM | 97.15 | 52.09 | 56 ± 8% | 65.61 | 51.07 | 51.54 | 56.07 | – | – | – | – | – | – | – | – |
